Consider 6 molecules from patent US9079876B2, “Imidazole derivatives and preparation method and use thereof” (Beijing Orbiepharm Co., Ltd., priority 2010, dated 2015).

Assay [1] relates to mice forced swimming immobility time. Briefly: Forced swimming test in mice (anti-depression model). In kind it is in vivo, Male Kunming mice. The settings on record: 20 mg/kg intragastric, in s (unit assumed). As for the experimental part: In Vivo Study: The Forced Swimming Test in Mice (Evaluation on Anti-Depression Model)
Male Kunming mice, approximately 20 g, were randomized into six groups, i.e. normal group, positive drug group (fluoxetine 20 mg/kg), group A (5 mg/kg Compound 1), group B (10 mg/kg Compound 1), group C (20 mg/kg Compound 1), and group D (40 mg/kg Compound 1).
Single Dose Test: Mice were normally fed for 1 day and allowed to adapt to the environment. Then the mice were fasted (except water) for 16 hours, and were intragastrically administrated with a single dose of the test drug, and the normal group was intragastrically administrated with an equivalent amount of distilled water. 40 min after administration, the mice were placed in forced swimming test device (swimming environment: pool diameter 12.5 cm cylinder, water temperature 25° C. and water depth 10 cm). Mice swam for six minutes, and the immobility time (i.e., the time during which the limbs were immobile, or only the feet were thrashing or paddling) was recorded with an animal behavioral record system, for the latter 4 min within the 6 min recording period, and was used for statistical analysis.
(§1) Study with Three-Day Consecutive Dosing: Mice were normally fed for 1 day and allowed to adapt to the environment. Then the mice were intragastrically administrated with the test drug consecutively for three days (once per day). The normal group was intragastrically administrated equivalent amount of distilled water. Mice were fasted (except water) for 16 hours before the last dosing. 40 min after the last dosing, the mice were placed in forced swimming test device (swimming environment: pool diameter 12.5 cm cylinder, water temperature 25° C. and water depth 10 cm). Mice swam for six minutes, and the immobility time (i.e., the time during which the limbs were immobile, or only the feet were thrashing or paddling) was recorded with an animal behavioral record system, for the latter 4 min within the 6 min recording period, and was used for statistical analysis.
as §1, with “Seven-Day” for “Three-Day”, “seven” for “three”

Assay [2] has as its system mice tail suspension immobility time. Kind of assay: Tail suspension test in mice (anti-depression model). It is filed as in vivo, Male Kunming mice. The settings on record: 20 mg/kg intragastric, in s (unit assumed). The protocol: In Vivo Test: Tail Suspension Test in Mice (Evaluation on an Anti-Depression Model)
Male Kunming mice, approximately 20 g, were randomized into six groups, i.e. normal group, positive drug group (fluoxetine 20 mg/kg), compound 1: group A 5 mg/kg, group B 10 mg/kg, group C 20 mg/kg, and group D 40 mg/kg.
Single Dose Test: Mice were normally fed for 1 day and allowed to adapt to the environment. Then the mice were fasted (except water) for 16 hours, and were intragastrically administrated with a single dose of the compound. The normal group was intragastrically administrated with an equivalent amount of distilled water. 40 min after the administration, the mice were inverted and fixed to a tail suspension device, and the distance between the head and the desktop was about 30 cm. Immobility time was recorded with an analysis record system, for the latter 4 min within the 6 min recording period, and was used for statistical analysis.
(§2) Study with Three-Day Consecutive Dosing: Mice were normally fed for 1 day and allowed to adapt to the environment. Then the mice were intragastrically administrated with the test drug for 3 consecutive days (once per day), and the normal group was intragastrically administrated with an equivalent amount of distilled water. The mice were fasted (except water) for 16 hours before the last dosing. 40 min after the last dosing, the mice were inverted and fixed to the tail suspension device, and the distance between the head and the desktop was about 30 cm. Immobility time was recorded with an analysis record system, for the latter 4 min within the 6 min recording period, and was used for statistical analysis.
as §2, with “with Seven-Day” for “with Three-Day”, “intragastrically dosed” for “intragastrically administrated with the test drug”, “for 7” for “for 3”, “days (once/day),” for “days (once per day),”, “last administration.” for “last dosing.”, “last administration,” for “last dosing,”

The target of assay [3] is T1, cyclooxygenase-2 (COX-2 enzyme) (Homo sapiens, UniProt P35354).
T1 construct: from tissue; host or cells: heparinised human whole blood from healthy volunteers, stimulated with LPS
T1 sequence (P35354 18-604): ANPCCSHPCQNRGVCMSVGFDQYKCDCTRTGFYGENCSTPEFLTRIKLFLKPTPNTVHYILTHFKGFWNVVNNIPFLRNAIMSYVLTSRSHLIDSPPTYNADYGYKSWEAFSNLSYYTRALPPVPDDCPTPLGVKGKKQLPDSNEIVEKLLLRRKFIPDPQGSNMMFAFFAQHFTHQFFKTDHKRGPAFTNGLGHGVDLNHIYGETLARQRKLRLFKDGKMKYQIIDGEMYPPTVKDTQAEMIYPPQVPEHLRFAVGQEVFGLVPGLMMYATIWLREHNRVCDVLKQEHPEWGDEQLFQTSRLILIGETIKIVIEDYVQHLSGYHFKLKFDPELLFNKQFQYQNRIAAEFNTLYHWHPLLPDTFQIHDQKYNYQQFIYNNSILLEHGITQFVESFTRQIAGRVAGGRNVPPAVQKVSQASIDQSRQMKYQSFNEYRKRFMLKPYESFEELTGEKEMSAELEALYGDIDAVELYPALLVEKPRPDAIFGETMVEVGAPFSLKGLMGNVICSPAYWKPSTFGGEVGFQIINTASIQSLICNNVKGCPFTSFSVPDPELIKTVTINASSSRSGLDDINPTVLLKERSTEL
Briefly: Human whole blood in vitro activity assay, COX-2 (LPS-induced PGE2 by EIA). It is filed as cell-based. Conditions: for IC50: LPS, PGE2, read-out: IC50 (μg/mL) COX-2 (converted). The protocol: (§3) Human whole blood in vitro activity study: inhibition of activity of cyclooxygenase-1 (COX-1 enzyme) and cyclooxygenase-2 (COX-2 enzyme) in human blood. […] The blood samples were divided into two parts: one was used for detecting COX-1 enzyme activity, and the other was used for detecting COX-2 enzyme activity. The compounds were dissolved in DMSO, and were prepared in advance into 2 μL solutions in respective concentrations of 500, 50, 5, 0.5, 0.05, 0.005, 0.0005 μg/mL. 200 μL whole blood without heparin was added in the tubes containing the compounds, and then incubated at 37° C. for 1 hour. The activity of COX-1 enzyme was detected by determining the amount of thromboxane B2 (TXB2) synthesized by platelet using an EIA kit. Samples tested without the compounds were negative controls. For COX-2, 200 μL whole blood with heparin was added in the tubes containing the compounds and in the tubes containing 10 μg/mL LPS. LPS control and blank control with solvent only were used respectively for determining the maximum value and the background value of the PGE2 produced therefrom. The samples were incubated at 37° C. for 24 hours, and then centrifuged to collect serum/plasma, which was stored at −80° C. for detection by an EIA kit. The EIA kit of Cayman Company was used, the amounts of TXB2 and PGE2 were determined in accordance to the manufacturer's instructions, and the activities of COX-1 and COX-2 were tested respectively.

In assay [4] the target is T2, cyclooxygenase-1 (COX-1 enzyme) (Homo sapiens, UniProt P23219).
T2 construct: from tissue; host or cells: human whole blood without heparin (platelets) from healthy volunteers
T2 sequence (P23219 24-599): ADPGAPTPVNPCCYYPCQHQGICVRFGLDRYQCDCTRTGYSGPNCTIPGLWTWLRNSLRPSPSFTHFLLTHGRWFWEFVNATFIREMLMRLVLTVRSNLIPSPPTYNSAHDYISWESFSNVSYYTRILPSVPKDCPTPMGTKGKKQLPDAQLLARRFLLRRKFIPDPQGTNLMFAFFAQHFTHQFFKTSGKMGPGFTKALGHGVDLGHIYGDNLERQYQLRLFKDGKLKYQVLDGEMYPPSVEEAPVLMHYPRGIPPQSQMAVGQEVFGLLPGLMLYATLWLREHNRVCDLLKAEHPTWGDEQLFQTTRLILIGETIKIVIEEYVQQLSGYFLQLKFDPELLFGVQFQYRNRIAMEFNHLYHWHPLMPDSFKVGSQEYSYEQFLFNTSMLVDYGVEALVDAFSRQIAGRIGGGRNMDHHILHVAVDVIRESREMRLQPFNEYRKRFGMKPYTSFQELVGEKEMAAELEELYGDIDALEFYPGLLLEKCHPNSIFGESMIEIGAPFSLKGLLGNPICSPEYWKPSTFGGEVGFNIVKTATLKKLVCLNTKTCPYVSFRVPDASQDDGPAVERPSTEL
Kind of assay: Human whole blood in vitro activity assay, COX-1 (TXB2 by EIA). The settings on record: read-out: IC50 (μg/mL) COX-1 (converted). In kind it is cell-based. The protocol:
as §3

Assay [5] has as its system rat paw swelling induced by carrageenan. Briefly: Rat paw swelling induced by carrageenan (inflammation model). In kind it is in vivo, Wistar rats. Conditions: 14 mg/kg intragastric. The protocol:
In vivo test: observation of the effect of compound 1 on rat paw swelling induced by carrageenan (inflammation model evaluation)
50 rats were randomized into 5 groups, with 10 animals in each group.
The total volume prepared for each dose group was determined based on the actual weight of the animals. A corresponding volume of purified water was taken, and was added with a sample of the test compounds or of the positive control, to allow homogenous dispersion. Sodium carboxymethyl cellulose was subsequently added, to make a homogenous suspension without obvious agglomerates.
Methods: 50 Wistar rats ([…], 167-199 g) were used in the study, with 25 males and 25 females. They were randomized into 5 groups, i.e. model group, positive control group, compound 1: low, middle and high dose groups. […] 1 hour after intragastric administration, 0.1 ml 1% carrageenan was intradermally injected in the right hind plantar paw to induce inflammation. After induction of inflammation, paw plantar volume and paw thickness were measured every another hour, consecutively for six times. Paw swelling rate (%) and inhibition rate (%) were calculated.
Assay methods: volume of the rat right paw was determined using UGO Basile plethysmograph, and the liquid level was kept constant for in the same animal in each measurement; thickness of the right hind paw were measured at the depiction line in the central paw with a digital vernier caliper.
The group mean and standard deviation of paw swelling rate in each group of animals were calculated, and then the following statistical analysis was performed. The test level was 0.05, and both statistical significance and biological significance were considered in the result analysis.
Levene's Test was used for homogeneity of variance test. Single-factor analysis of variance (ANOVA) was used for statistical analysis, if no statistical significance (P>0.05) was found. Dunnett's test (parametric method) analysis was used for multiple comparison analysis, if ANOVA found statistical significance (P≦0.05).
If there was heterogeneity of variance (P≦0.05), then the Kruskal-Wallis test was used. If the test result of Kruskal-Wallis test was statistically significant (P<0.05), then Dunnett's test (non-parametric method) was used for multiple comparison analysis.

[6] abbreviates: 3 days consecutive administration.
Setting [7] is: 7 days consecutive administration.
Where [8] appears, read: single dose, 40 min after administration.

Consider `CNCCC(Oc1ccc(C(F)(F)F)cc1)c1ccccc1` (stereo not drawn) [fluoxetine, reference compound], for which the “forced swimming Immobility time” value in assay [1] (setting [6]) came to 82.42 ± 32.07; in assay [1] (setting [7]), 90.94 ± 31.73; in assay [1] (setting [8]), 105.04 ± 37.98. Besides, the “tail suspension Immobility time” value is recorded as 33.95 ± 10.50 in assay [2] (setting [6]), 33.76 ± 10.47 in assay [2] (setting [7]) and 43.52 ± 20.21 in assay [2] (setting [8]).
Consider `CS(=O)(=O)c1ccc(-n2cnc(Cl)c2-c2ccc(F)cc2)cn1` [Compound 12, 5-(4-chloro-5-(4-fluorophenyl)-1H-imidazol-1-yl)-2-(methylsulfonyl)pyridine], for which, in assay [3], the IC50COX-1/IC50COX-2 is 135.9. Moreover, the values for the IC50 in assay [3] and in assay [4] were 1.54 µM and 209 µM, respectively.
Take `Cc1ccc(-c2cc(C(F)(F)F)nn2-c2ccc(S(N)(=O)=O)cc2)cc1` [Celecoxib, reference compound]: the “inhibition rate of plantar paw thickness swelling” value was found to be 30.02% in assay [5] (1 h after inflammation); 60.28% in assay [5] (2 h after inflammation); 73.09% in assay [5] (3 h after inflammation); 80.52% in assay [5] (4 h after inflammation); 82.31% in assay [5] (5 h after inflammation); 82.40% in assay [5] (6 h after inflammation). In addition, the “inhibition rate of plantar paw volume swelling” value in assay [5] (1 h after inflammation) came to 0.26%; in assay [5] (2 h after inflammation), 38.81%; in assay [5] (3 h after inflammation), 66.24%; in assay [5] (4 h after inflammation), 64.29%; in assay [5] (5 h after inflammation), 56.44%; in assay [5] (6 h after inflammation), 57.00%. Further, the “plantar paw thickness swelling rate” value came out at 7.69 ± 3.31% in assay [5] (1 h after inflammation); 6.30 ± 2.55 % in assay [5] (2 h after inflammation); 4.64 ± 1.99 % in assay [5] (3 h after inflammation); 3.71 ± 2.58 % in assay [5] (4 h after inflammation); 3.34 ± 2.56 % in assay [5] (5 h after inflammation); 2.72 ± 2.51 % in assay [5] (6 h after inflammation). Moreover, the “plantar paw volume swelling rate” value amounted to 10.87 ± 6.32% in assay [5] (1 h after inflammation); 10.71 ± 6.01 % in assay [5] (2 h after inflammation); 7.16 ± 5.15 % in assay [5] (3 h after inflammation); 9.68 ± 6.13 % in assay [5] (4 h after inflammation); 12.22 ± 6.90 % in assay [5] (5 h after inflammation); 11.91 ± 5.41 % in assay [5] (6 h after inflammation).
For the molecule `CS(=O)(=O)c1ccc(-n2cnc(Cl)c2-c2ccccc2)cn1` [Compound 8, 5-(4-chloro-5-phenyl-1H-imidazol-1-yl)-2-(methylsulfonyl)pyridine], in assay [3], the IC50COX-1/IC50COX-2 was greater than 416 and the IC50 is 3.59 µM. The IC50 in assay [4] was greater than 1500 µM.
For `COc1ccc(-c2c(Cl)ncn2-c2ccc(S(C)(=O)=O)nc2)cc1F` [Compound 10, 5-(4-chloro-5-(3-fluoro-4-methoxyphenyl)-1H-imidazol-1-yl)-2-(methylsulfonyl)pyridine], in that order: 58.8, 3.14 µM and 185 µM.
For `CS(=O)(=O)c1ccc(-n2cnc(Cl)c2-c2ccc(Cl)cc2Cl)nc1` [Compound 4, 2-(4-chloro-5-(2,4-dichlorophenyl)-1H-imidazol-1-yl)-5-(methylsulfonyl)pyridine], in that order: 26.2, 1.74 µM and 45.6 µM.
